From ChEMBL document CHEMBL3885881, “DrugMatrix”

Species: Rattus norvegicus
Test: DrugMatrix - Regimen: Daily Repeat
Type: toxicity, organism-based, Sprague-Dawley
Set-up: regimen Daily Repeat, gender Male, age 6-8 weeks
Settings: in vivo, po, route oral GAVAGE, vehicle .5 % CMC; for BASOPHIL / EOSINOPHIL / ERYTHROCYTE COUNT / HEMATOCRIT / LEUKOCYTE COUNT / LYMPHOCYTE / MEAN CORPUSCULAR HEMOGLOBIN / MEAN CORPUSCULAR HEMOGLOBIN CONCENTRATION / MEAN CORPUSCULAR VOLUME / MONOCYTE / NEUTROPHIL / PLATELET COUNT: tissue Blood; for ALANINE AMINOTRANSFERASE / ALBUMIN / ALKALINE PHOSPHATASE / ASPARTATE AMINOTRANSFERASE / BLOOD UREA NITROGEN / CHLORIDE / CHOLESTEROL / CREATININE / GLUCOSE / PHOSPHORUS / POTASSIUM / TOTAL BILIRUBIN / TOTAL PROTEIN: tissue Plasma
[1] = 0 mg/kg, 72 h, dose level Control, time 3 day
[2] = 0 mg/kg, 120 h, dose level Control, time 5 day
[3] = 10 mg/kg, 72 h, dose level Low, time 3 day
[4] = 10 mg/kg, 120 h, dose level Low, time 5 day
[5] = 52 mg/kg, 72 h, dose level High, time 3 day
[6] = 52 mg/kg, 120 h, dose level High, time 5 day

Compound: CNCCC(Oc1ccc(C(F)(F)F)cc1)c1ccccc1 (configuration not stated) [FLUOXETINE]
- BASOPHIL [1]: 0%
- EOSINOPHIL [1]: 0%
- ERYTHROCYTE COUNT [1]: 6.34 x10E6/uL
- HEMATOCRIT [1]: 37.62%
- LEUKOCYTE COUNT [1]: 11.18 x10E3/uL
- LYMPHOCYTE [1]: 87.5%
- MEAN CORPUSCULAR HEMOGLOBIN [1]: 23.48 pg
- MEAN CORPUSCULAR HEMOGLOBIN CONCENTRATION [1]: 39.5 G/DL
- MEAN CORPUSCULAR VOLUME [1]: 59.45 fL
- MONOCYTE [1]: 1.67%
- NEUTROPHIL [1]: 10.83%
- PLATELET COUNT [1]: 1074.83 x10E3/uL
- ALANINE AMINOTRANSFERASE [1]: 36.5 u/L
- ALBUMIN [1]: 3.9 G/DL
- ALKALINE PHOSPHATASE [1]: 370.17 u/L
- ASPARTATE AMINOTRANSFERASE [1]: 63.17 u/L
- BLOOD UREA NITROGEN [1]: 16.83 mg/dL
- CHLORIDE [1]: 99.33 MEQ/L
- CHOLESTEROL [1]: 64.33 mg/dL
- CREATININE [1]: 0.55 mg/dL
- GLUCOSE [1]: 173.5 mg/dL
- PHOSPHORUS [1]: 10.08 mg/dL
- POTASSIUM [1]: 6.23 MEQ/L
- TOTAL BILIRUBIN [1]: 0.52 mg/dL
- TOTAL PROTEIN [1]: 6.35 G/DL
- BASOPHIL [2]: 0%
- EOSINOPHIL [2]: 0.17%
- ERYTHROCYTE COUNT [2]: 6.12 x10E6/uL
- HEMATOCRIT [2]: 37.08%
- LEUKOCYTE COUNT [2]: 11.87 x10E3/uL
- LYMPHOCYTE [2]: 83.33%
- MEAN CORPUSCULAR HEMOGLOBIN [2]: 24.25 pg
- MEAN CORPUSCULAR HEMOGLOBIN CONCENTRATION [2]: 39.97 G/DL
- MEAN CORPUSCULAR VOLUME [2]: 60.65 fL
- MONOCYTE [2]: 1.5%
- NEUTROPHIL [2]: 15%
- PLATELET COUNT [2]: 1042.83 x10E3/uL
- ALANINE AMINOTRANSFERASE [2]: 46 u/L
- ALBUMIN [2]: 3.82 G/DL
- ALKALINE PHOSPHATASE [2]: 369.5 u/L
- ASPARTATE AMINOTRANSFERASE [2]: 65 u/L
- BLOOD UREA NITROGEN [2]: 16.33 mg/dL
- CHLORIDE [2]: 100.67 MEQ/L
- CHOLESTEROL [2]: 57.17 mg/dL
- CREATININE [2]: 0.53 mg/dL
- GLUCOSE [2]: 163.33 mg/dL
- PHOSPHORUS [2]: 9.53 mg/dL
- POTASSIUM [2]: 6.27 MEQ/L
- TOTAL BILIRUBIN [2]: 0.55 mg/dL
- TOTAL PROTEIN [2]: 6.32 G/DL
- BASOPHIL [3]: 0%
- EOSINOPHIL [3]: 0%
- ERYTHROCYTE COUNT [3]: 6.11 x10E6/uL
- HEMATOCRIT [3]: 38.43%
- LEUKOCYTE COUNT [3]: 11.83 x10E3/uL
- LYMPHOCYTE [3]: 84.67%
- MEAN CORPUSCULAR HEMOGLOBIN [3]: 24.53 pg
- MEAN CORPUSCULAR HEMOGLOBIN CONCENTRATION [3]: 39 G/DL
- MEAN CORPUSCULAR VOLUME [3]: 62.8 fL
- MONOCYTE [3]: 1.67%
- NEUTROPHIL [3]: 13.67%
- PLATELET COUNT [3]: 1383.67 x10E3/uL
- ALANINE AMINOTRANSFERASE [3]: 32.67 u/L
- ALBUMIN [3]: 4 G/DL
- ALKALINE PHOSPHATASE [3]: 373.67 u/L
- ASPARTATE AMINOTRANSFERASE [3]: 53 u/L
- BLOOD UREA NITROGEN [3]: 15.67 mg/dL
- CHLORIDE [3]: 99.33 MEQ/L
- CHOLESTEROL [3]: 78 mg/dL
- CREATININE [3]: 0.5 mg/dL
- GLUCOSE [3]: 162 mg/dL
- PHOSPHORUS [3]: 11 mg/dL
- POTASSIUM [3]: 5.93 MEQ/L
- TOTAL BILIRUBIN [3]: 0.33 mg/dL
- TOTAL PROTEIN [3]: 6.6 G/DL
- BASOPHIL [4]: 0%
- EOSINOPHIL [4]: 0.33%
- ERYTHROCYTE COUNT [4]: 6.65 x10E6/uL
- HEMATOCRIT [4]: 39.33%
- LEUKOCYTE COUNT [4]: 11.3 x10E3/uL
- LYMPHOCYTE [4]: 91%
- MEAN CORPUSCULAR HEMOGLOBIN [4]: 23.1 pg
- MEAN CORPUSCULAR HEMOGLOBIN CONCENTRATION [4]: 39.1 G/DL
- MEAN CORPUSCULAR VOLUME [4]: 59.13 fL
- MONOCYTE [4]: 0.67%
- NEUTROPHIL [4]: 8%
- PLATELET COUNT [4]: 1162.33 x10E3/uL
- ALANINE AMINOTRANSFERASE [4]: 35 u/L
- ALBUMIN [4]: 3.83 G/DL
- ALKALINE PHOSPHATASE [4]: 381 u/L
- ASPARTATE AMINOTRANSFERASE [4]: 55 u/L
- BLOOD UREA NITROGEN [4]: 13.67 mg/dL
- CHLORIDE [4]: 97.67 MEQ/L
- CHOLESTEROL [4]: 67.67 mg/dL
- CREATININE [4]: 0.57 mg/dL
- GLUCOSE [4]: 169 mg/dL
- PHOSPHORUS [4]: 12.13 mg/dL
- POTASSIUM [4]: 6.2 MEQ/L
- TOTAL BILIRUBIN [4]: 0.43 mg/dL
- TOTAL PROTEIN [4]: 6.3 G/DL
- BASOPHIL [5]: 0%
- EOSINOPHIL [5]: 0.33%
- ERYTHROCYTE COUNT [5]: 6.76 x10E6/uL
- HEMATOCRIT [5]: 40.83%
- LYMPHOCYTE [5]: 90%
- MEAN CORPUSCULAR HEMOGLOBIN [5]: 24.27 pg
- MEAN CORPUSCULAR HEMOGLOBIN CONCENTRATION [5]: 40.07 G/DL
- MEAN CORPUSCULAR VOLUME [5]: 60.57 fL
- MONOCYTE [5]: 1%
- NEUTROPHIL [5]: 8.67%
- PLATELET COUNT [5]: 1353.67 x10E3/uL
- ALANINE AMINOTRANSFERASE [5]: 23.67 u/L
- ALBUMIN [5]: 3.93 G/DL
- ALKALINE PHOSPHATASE [5]: 317 u/L
- ASPARTATE AMINOTRANSFERASE [5]: 55.67 u/L
- BLOOD UREA NITROGEN [5]: 14.67 mg/dL
- CHLORIDE [5]: 97.67 MEQ/L
- CHOLESTEROL [5]: 88.33 mg/dL
- CREATININE [5]: 0.63 mg/dL
- GLUCOSE [5]: 135.67 mg/dL
- POTASSIUM [5]: 6.83 MEQ/L
- TOTAL BILIRUBIN [5]: 0.47 mg/dL
- BASOPHIL [6]: 0%
- EOSINOPHIL [6]: 0%
- ERYTHROCYTE COUNT [6]: 7.1 x10E6/uL
- HEMATOCRIT [6]: 41.93%
- LEUKOCYTE COUNT [6]: 12.47 x10E3/uL
- LYMPHOCYTE [6]: 88.67%
- MEAN CORPUSCULAR HEMOGLOBIN [6]: 23.53 pg
- MEAN CORPUSCULAR HEMOGLOBIN CONCENTRATION [6]: 39.7 G/DL
- MEAN CORPUSCULAR VOLUME [6]: 59.33 fL
- MONOCYTE [6]: 0.33%
- NEUTROPHIL [6]: 11%
- PLATELET COUNT [6]: 1164.33 x10E3/uL
- ALANINE AMINOTRANSFERASE [6]: 37 u/L
- ALBUMIN [6]: 3.8 G/DL
- ALKALINE PHOSPHATASE [6]: 263.33 u/L
- ASPARTATE AMINOTRANSFERASE [6]: 65.67 u/L
- BLOOD UREA NITROGEN [6]: 13.67 mg/dL
- CHLORIDE [6]: 98.33 MEQ/L
- CHOLESTEROL [6]: 79.67 mg/dL
- CREATININE [6]: 0.6 mg/dL
- GLUCOSE [6]: 142.33 mg/dL
- PHOSPHORUS [6]: 12.27 mg/dL
- POTASSIUM [6]: 6.23 MEQ/L
- TOTAL BILIRUBIN [6]: 0.4 mg/dL
- TOTAL PROTEIN [6]: 6.3 G/DL
